Data as given in US10016515B2, “DMA, a bis-benzimidazole, confers radioprotection to the intestine via Akt/NFκB dual pathway activation” (Jawaharlal Nehru University, priority 2016, dated 2018).

Assays:
Balb/c intestinal cells = assay: Cell proliferation by BrdU labeling, flow cytometry; type: in vivo, mouse
Method: S phase cells were labeled in vivo by administering BrdU (i.p., 100 mg/kg) to each mouse 2 h before euthanasia. Mice were euthanized 3 days after irradiation and small intestine was rapidly dissected, chopped into homogeneous solution by straining with 70μ strainer and fixed in 70% ethanol. Cells stained with 0.5 mL of RNase (2 mg/mL) and 0.5 mL of propidium iodide (0.1% in 0.6% Triton X-100 in PBS) for 30 min in dark. Samples were then analysed on a FACS Calibur flow-cytometer (Becton Dickinson).

Balb/c mice = type: in vivo; conditions: 400 mg/kg oral before 8Gy TBI
[1] = Cytotoxicity by MTT assay; type: cell-based, human; conditions: human
Method: (§1) Exponentially growing HEK293, MRC5 and A549 cells were plated at cell densities 3000 cells per well in 96-well tissue culture plates. […] Cytotoxicity was measured by MTT assay according to the manufacturer's instructions (Promega, Madison, Wis., USA).

MRC5 cells = assay: Cytotoxicity by MTT assay; type: cell-based, human
Method: as §1

A549 cells = assay: Cytotoxicity by MTT assay; type: cell-based, human
Method: as §1

HEK293 cells [2] = assay: Cytotoxicity by MTT assay; type: cell-based, human
Method: as §1

HEK293 cells [3] = assay: Proliferation kinetics in presence of inhibitors; type: cell-based, human
Method: HEK293 cells post 50 μM LY294002 (PI3K/Akt inhibitor) and 10 μM PS1145 (NFκB inhibitor) treatment were treated with 50 μM DMA and 5 Gy radiation. Same experiment was done with control (no inhibitor), only LY294002 and only PS1145 treated HEK cells. Percentage (%) radioprotection of cells at 24, 48 and 72 h was calculated by following formula— % growth of Radiation treated cells=(CNRadiation/CNControl)×100. % growth of DMA+Radiation treated cells=(CNDMA+Radiaion/CNControl)×100. % Radioprotection=% growth of DMA+Radiation treated cells−% growth of Radiation treated cells where CN is the cell number.

Balb/c mice liver tissue = assay: Biochemical estimations of antioxidant enzymes, thiols and lipid peroxidation in liver; type: in vivo, mouse; set-up: MDA level in hepatic tissues / Reduced glutathione (GSH) level in liver / GST level / GST content / SOD activity / SOD level / Total thiol contents in liver homogenates: unit not given here
Method: Mice hepatic tissues were homogenised using REMI homogenizer in phosphate buffer and centrifuged at 10,000×g for 15 min and aliquots of supernatant were separated. The supernatant was used for the biochemical estimations using standard spectrophotometric reported methods. The total protein was determined by the Lowry method.
The liver supernatant was incubated for 10 min and the absorbance was measured at 412 nm and total thiol content was calculated by standard method. The amount of MDA was done by reaction with thiobarbituric acid (TBA) at 532 nm by literature method.
Glutathione was measured according to the Ellman's method.
Superoxide dismutase (SOD) activity was assayed according to the Marklund and Marklund method. The activity of GST was determined by using CDNB as the substrate. The reaction mixture contained 1 mM of CDNB, 1 mM GSH in 0.1M phosphate buffer (pH 6.5). The formation of the GSH-CDNB conjugate was determined at 340 nm and the activity was calculated by using e=9.6 mM-1 cm-1.

HEK293 cells [4] = assay: Actively proliferating cells by BrdU uptake; type: cell-based, human; conditions: 48 h
Method: FIG. 5. […] Tissue sections performed 3 days postirradiation (8Gy) with and without 50 mg/kg bw, i.v. DMA pretreatment with the control and DMA treated tissues (A) Images showing spleen, intestine and liver analysis at magnification 40× objective lens. (B) Small intestine, spleen and lung sections from melanoma tumor bearing mice at 40× & 60× objective lens (C) Immunohistochemical analysis of BrdU uptake in spleen and IL6 protein expression in intestine tissues at 100× objective lens magnification. (D) Graphical representation of actively proliferating HEK293 at 48 h and Balb/c intestinal cells by BrdU uptake under each condition (n=3/group from 2 independent experiments).

HEK293 cells [5] = assay: Clonogenicity assay with Akt depleted cells; type: cell-based, human; conditions: 5Gy
Method: HEK 293 cells were transfected with Akt siRNA and control-siRNA (Santa Cruz Biotechnology Inc.) according to the manufacturer's instructions. Semi-quantitative RT-PCR was performed with primers specific for Akt and ACTB in control siRNA and Akt siRNA treated HEK cells for analysing knockdown of Akt […] gene expression.
Exponentially growing HEK cells post siRNA (siRNA-Akt and control siRNA transfections) were treated with 50 μM DMA for 1 h and irradiated with 0, 1, 2, 5 and 8 Gy of radiation dose at RT. Cells were seeded into 60 mm dishes in triplicate, at various densities and cells were stained with crystal violet to count colonies. Same experiment was done with control siRNA-transfected HEK cells. Percentage radioprotection was calculated by following formula % of Protection in radiation treated cells=(Survival fraction in siRNA+DMA treated cells/Survival fraction in only siRNA treated cells/)×100.

COc1ccc(-c2nc3cc(-c4nc5cc(N6CCN(C)CC6)ccc5[nH]4)ccc3[nH]2)cc1OC [DMA, 5-(4-methylpiperazin-1-yl)-2-[2′-(3,4-dimethoxyphenyl)-5′-benzimidazolyl]benzimidazole]
Active S-phase cells in intestine (Balb/c intestinal cells; 50 mg/kg i.v. pretreatment, 8Gy TBI): 11%
Cell proliferation in intestine tissue (Balb/c intestinal cells; DMA treated vs control): same
30-days survival rate (Balb/c mice): 90%
IC50 ([1]; A549 cells, A549, 1-100 μM, up to 72 h): > 100 µM
IC50 at 24 h ([1]; MRC5 cells, MRC-5 cells, 24 h): 92.5 µM
IC50 at short term incubation (MRC5 cells; MRC5, 50 μM DMA, 2 h): no observable IC50
IC50 at short term treatment (MRC5 cells; MRC5, DMA at 509 μM for 2 h): no observable IC50
IC50 at short term incubation (A549 cells; A549, 50 μM DMA, 2 h): no observable IC50
IC50 (cytotoxicity) (A549 cells; A549, 1-100 μM, up to 72 h): could not be achieved
IC50 at short term treatment (A549 cells; A549, DMA at 509 μM for 2 h): no observable IC50
Concentration at which DMA was cytotoxic (HEK293 cells [2]; HEK293): 50 µM
IC50 at short term incubation (HEK293 cells [2]; HEK293, 50 μM DMA, 2 h): no observable IC50
IC50 at short term treatment (HEK293 cells [2]; HEK293, DMA for 2 h): no observable IC50
% radioprotection by DMA (HEK293 cells [3]; LY294002 and PS1145 simultaneously, 24 h): 3%
% radioprotection by DMA (HEK293 cells [3]; LY294002 and PS1145 simultaneously, 48 h): 2.2%
% radioprotection by DMA (HEK293 cells [3]; LY294002 and PS1145 simultaneously, 72 h): 2%
% radioprotection by DMA (HEK293 cells [3]; LY294002 treated cells, 24 h): 15%
% radioprotection by DMA (HEK293 cells [3]; LY294002 treated cells, 48 h): 10%
% radioprotection by DMA (HEK293 cells [3]; LY294002 treated cells, 72 h): 4%
% radioprotection by DMA (HEK293 cells [3]; PS1145 treated cells, 24 h): 4%
% radioprotection by DMA (HEK293 cells [3]; PS1145 treated cells, 48 h): 3.5%
% radioprotection by DMA (HEK293 cells [3]; PS1145 treated cells, 72 h): 2.4%
% radioprotection by DMA (HEK293 cells [3]; no inhibitor, 50 μM DMA, 5 Gy, 24 h): 40%
% radioprotection by DMA (HEK293 cells [3]; no inhibitor, 50 μM DMA, 5 Gy, 48 h): 35%
% radioprotection by DMA (HEK293 cells [3]; no inhibitor, 50 μM DMA, 5 Gy, 72 h): 16%
Glutathione reductase activity (Balb/c mice liver tissue; DMA 2 h prior to irradiation vs irradiated group): significant decrease
SOD activity (Balb/c mice liver tissue; DMA only): 16.96±1.35
GST level (Balb/c mice liver tissue; DMA only, 200 mg/kg oral): 2.76±0.32
MDA level in hepatic tissues (Balb/c mice liver tissue; DMA only, 200 mg/kg oral): 0.19±0.06
Reduced glutathione (GSH) level in liver (Balb/c mice liver tissue; DMA only, 200 mg/kg oral): 5.07±0.09
Reduced glutathione (GSH) level in liver (Balb/c mice liver tissue; DMA pre-treatment + 8Gy TBI): 3.73±0.69
MDA level in hepatic tissues (Balb/c mice liver tissue; DMA pre-treatment + 8Gy TBI, 24 h post-irradiation): 0.20±0.04
Total thiol contents in liver homogenates (Balb/c mice liver tissue; DMA pre-treatment + TBI): 0.91±0.08
SOD level (Balb/c mice liver tissue; DMA pre-treatment to radiation (8Gy)): 15.50±0.60
GST content (Balb/c mice liver tissue; DMA prior to radiation): 2.78±0.25
Cells at active S phase (HEK293 cells [4]; HEK293, DMA treated): 30%
S phase cells (HEK293 cells [4]; HEK293, DMA+Radiation (5Gy)): came back to normal
% radioprotection (clonogenicity) (HEK293 cells [5]; Akt siRNA treated cells): 7.5%
% radioprotection (clonogenicity) (HEK293 cells [5]; control siRNA treated cells): 40.6%
